Some test systems named below: MOLT-4 leukemia; HL-60(TB) leukemia; LOX IMVI melanoma; NCI-H522 lung; RXF 393 renal; MCF7 breast; A549 NSCLC; OVCAR-3 ovarian; NCI-H23 lung; SF-295 CNS.
Holding throughout (assay): NCI anticancer screen, dose series, 48 h

This passage reports GI50 and TGI results from PubChem BioAssay (NCI).

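Assay format: 96-well plates, 48-hour exposure. GI50: concentration for 50% inhibition of growth. TGI marks complete inhibition of growth.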

On to `NC(N)=N/N=C(\N=Nc1ccccc1)c1ccc(Cl)cc1`, for which the GI50 in the experiment on MOLT-4 leukemia is 2.35 µM; in the experiment with HL-60(TB) leukemia it was 1.88 µM; in the experiment with LOX IMVI melanoma it was 1.18 µM; in the experiment on NCI-H522 lung, 3.35 µM; with RXF 393 renal, 2.69 µM; in the experiment with MCF7 breast it was 2.43 µM. Further, the GI50 was 4.25 µM in the experiment on A549 NSCLC, 2.8 µM with OVCAR-3 ovarian, 14.4 µM with NCI-H23 lung and 1.82 µM in the experiment on SF-295 CNS. In addition, the TGI came out at 6.16 µM in the experiment with MOLT-4 leukemia; 3.85 µM in the experiment on HL-60(TB) leukemia; 3.54 µM in the experiment with LOX IMVI melanoma; 13.8 µM with NCI-H522 lung; 9.33 µM in the experiment with RXF 393 renal; 14.2 µM in the experiment with MCF7 breast. The TGI with A549 NSCLC stood at 18.5 µM; in the experiment on OVCAR-3 ovarian it was 7.24 µM; in the experiment with NCI-H23 lung it was 30 µM; in the experiment with SF-295 CNS, 6.39 µM.

As to `COc1cc(/C=C/C(=O)Oc2ccccc2)ccc1C(=O)O/C=C/c1ccccc1`, the TGI with MOLT-4 leukemia, with HL-60(TB) leukemia, in the experiment with LOX IMVI melanoma, with NCI-H522 lung, in the experiment on RXF 393 renal and in the experiment with MCF7 breast was > 100 µM in each case. The TGI was > 100 µM in the experiment with A549 NSCLC, > 31.6 µM with OVCAR-3 ovarian, > 100 µM with NCI-H23 lung and > 100 µM in the experiment on SF-295 CNS.

With `O=C(N/N=C/c1ccc(O)cc1O)c1cccnc1`, the GI50 in the experiment with MOLT-4 leukemia is 3.1 µM; with HL-60(TB) leukemia it was 3.74 µM; in the experiment with LOX IMVI melanoma it was 1.84 µM; with NCI-H522 lung, 3.21 µM; with RXF 393 renal, 3.74 µM; with MCF7 breast it was 1.94 µM. For the same compound, the GI50 in the experiment with A549 NSCLC is 4.66 µM; in the experiment with OVCAR-3 ovarian, 0.474 µM; with NCI-H23 lung, 5.92 µM; in the experiment on SF-295 CNS, 6.66 µM. In addition, the TGI is > 100 µM with MOLT-4 leukemia; > 100 µM with HL-60(TB) leukemia; > 100 µM in the experiment with LOX IMVI melanoma; > 100 µM in the experiment with NCI-H522 lung; > 100 µM in the experiment with RXF 393 renal; 7.5 µM in the experiment with MCF7 breast. Also, the TGI in the experiment on A549 NSCLC is > 100 µM; with OVCAR-3 ovarian it was 29.4 µM; with NCI-H23 lung, > 100 µM; in the experiment on SF-295 CNS, > 100 µM.

With `Oc1ccc(Oc2cnc3ccccc3n2)cc1`, the GI50 in the experiment on MOLT-4 leukemia is 41.4 µM; with HL-60(TB) leukemia, 26.3 µM; with LOX IMVI melanoma, > 100 µM; in the experiment with NCI-H522 lung, > 100 µM; in the experiment on RXF 393 renal, 34.3 µM; in the experiment with MCF7 breast, > 100 µM. Also, the GI50 in the experiment on A549 NSCLC was > 100 µM; in the experiment with OVCAR-3 ovarian, > 100 µM; with NCI-H23 lung, > 100 µM; in the experiment with SF-295 CNS it was 38.2 µM. Besides, the TGI in the experiment on MOLT-4 leukemia, with HL-60(TB) leukemia, in the experiment with LOX IMVI melanoma, in the experiment with NCI-H522 lung, in the experiment with RXF 393 renal and in the experiment on MCF7 breast was > 100 µM each time. The TGI in the experiment with A549 NSCLC, in the experiment with OVCAR-3 ovarian, with NCI-H23 lung and in the experiment with SF-295 CNS was > 100 µM in each case.

For `CS(=O)(=O)CS(=O)(=O)OCCCl`, the TGI with MOLT-4 leukemia is 629 µM; in the experiment with HL-60(TB) leukemia, 541 µM; with LOX IMVI melanoma, 497 µM; in the experiment with NCI-H522 lung, 723 µM; in the experiment on RXF 393 renal, 611 µM; in the experiment with MCF7 breast, 1420 µM. In addition, the TGI with A549 NSCLC is 1640 µM; in the experiment with OVCAR-3 ovarian, 983 µM; in the experiment on NCI-H23 lung it was 494 µM; in the experiment with SF-295 CNS, 554 µM.

As for `CC(=O)NC1CONC1=O` (centres undefined), the TGI in the experiment on MOLT-4 leukemia, in the experiment with HL-60(TB) leukemia, in the experiment on LOX IMVI melanoma, in the experiment with NCI-H522 lung, in the experiment on RXF 393 renal and in the experiment with MCF7 breast was > 100 µM each time. Also, the TGI with A549 NSCLC, with OVCAR-3 ovarian, in the experiment with NCI-H23 lung and with SF-295 CNS was > 100 µM each time.

Regarding `C=CCn1c(SCC(=O)Nc2ccc(C(=O)/C=C/c3cc(OC)c(OC)c(OC)c3)cc2)nnc1-c1ccc(OC)cc1`, the GI50 in the experiment on MOLT-4 leukemia is 0.378 µM; in the experiment on HL-60(TB) leukemia it was 0.473 µM; in the experiment on LOX IMVI melanoma, 0.28 µM; with NCI-H522 lung, 0.689 µM; in the experiment on RXF 393 renal, 0.377 µM; with MCF7 breast it was 0.246 µM. Besides, the GI50 is 0.875 µM with A549 NSCLC, 0.343 µM in the experiment with OVCAR-3 ovarian, 0.67 µM in the experiment on NCI-H23 lung and 0.9 µM in the experiment with SF-295 CNS. Moreover, the TGI with MOLT-4 leukemia is > 100 µM; with LOX IMVI melanoma it was 1.03 µM; in the experiment on NCI-H522 lung, 3.37 µM; in the experiment on RXF 393 renal, 1.41 µM; in the experiment with MCF7 breast, 3.14 µM; in the experiment with A549 NSCLC, 4.83 µM. The TGI with OVCAR-3 ovarian was 1.02 µM; in the experiment with NCI-H23 lung, 2.66 µM; in the experiment on SF-295 CNS, 4.88 µM.

As for `CC1(C)N=C(N)N=C(N)N1c1cccc(OCCOc2cccc([N+](=O)[O-])c2)c1`, the GI50 with MOLT-4 leukemia was 2.45 µM; in the experiment on HL-60(TB) leukemia it was 1.18 µM; in the experiment on LOX IMVI melanoma, 2.15 µM; in the experiment with NCI-H522 lung, 1.19 µM; in the experiment with RXF 393 renal it was 35.2 µM; in the experiment on MCF7 breast, 2.23 µM. Further, the GI50 was 0.561 µM in the experiment on A549 NSCLC, 5.13 µM in the experiment on OVCAR-3 ovarian, 1.73 µM with NCI-H23 lung and 15 µM in the experiment on SF-295 CNS. In addition, the TGI is > 100 µM in the experiment with MOLT-4 leukemia; > 77.8 µM in the experiment on HL-60(TB) leukemia; > 100 µM in the experiment on LOX IMVI melanoma; 62.5 µM in the experiment with NCI-H522 lung; > 100 µM in the experiment on RXF 393 renal; > 100 µM with MCF7 breast. For the same compound, the TGI in the experiment on A549 NSCLC, in the experiment on OVCAR-3 ovarian, in the experiment with NCI-H23 lung and in the experiment with SF-295 CNS was > 100 µM in each case.

Consider `C=C(C)[C@@H]1CC[C@]2(C)[C@H](CC[C@@H]3[C@@H]([C@@](C)(O)CCC=C(C)C)CC[C@]32C)[C@@]1(C)CCC(=O)O`, for which the GI50 with MOLT-4 leukemia is 15.4 µM; in the experiment on HL-60(TB) leukemia, 20.6 µM; with LOX IMVI melanoma it was 17.9 µM; with NCI-H522 lung it was 20.3 µM; with RXF 393 renal, 14.3 µM; in the experiment with MCF7 breast it was 19.7 µM. Also, the GI50 is 23.3 µM in the experiment with A549 NSCLC, 15.9 µM with OVCAR-3 ovarian, 18.1 µM in the experiment with NCI-H23 lung and 17.7 µM with SF-295 CNS. The TGI came to 52.7 µM with MOLT-4 leukemia; 54.5 µM in the experiment with HL-60(TB) leukemia; 31.8 µM in the experiment with LOX IMVI melanoma; 63.5 µM in the experiment with NCI-H522 lung; 28.6 µM with RXF 393 renal; 49.3 µM in the experiment on MCF7 breast. Also, the TGI in the experiment on A549 NSCLC turned out to be 91.9 µM; with OVCAR-3 ovarian it was 29.8 µM; in the experiment on NCI-H23 lung, 35.6 µM; in the experiment with SF-295 CNS, 32.2 µM.
